biological target: T1, P2Y14 receptor (Homo sapiens, UniProt Q15391); assay: cAMP inhibition assay in HEK293 cells stably transfected with the P2Y14 receptor (UDPG-stimulated, cAMP Glo); type: cell-based; conditions: 100 nM compound; HEK293 stably transfected with P2Y14 receptor; 30 μM Forskolin, 1 μM UDPG, 4 h; inhibition rate from cAMP content; read-out: Inhibition @ 100 nM
T1 construct: expressed in transfected cells; host or cells: HEK293
T1 sequence (Q15391 1-338): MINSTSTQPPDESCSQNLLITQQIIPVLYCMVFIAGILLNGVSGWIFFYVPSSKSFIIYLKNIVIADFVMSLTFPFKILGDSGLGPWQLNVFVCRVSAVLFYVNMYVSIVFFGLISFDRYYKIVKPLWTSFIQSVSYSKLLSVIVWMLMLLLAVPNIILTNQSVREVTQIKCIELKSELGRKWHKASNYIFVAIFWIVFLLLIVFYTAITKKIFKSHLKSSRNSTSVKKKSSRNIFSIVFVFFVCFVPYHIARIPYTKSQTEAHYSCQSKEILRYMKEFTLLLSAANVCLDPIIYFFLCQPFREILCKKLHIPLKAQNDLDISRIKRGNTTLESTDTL
Procedure: An HEK293 cell strain stably transfected with the P2Y14 receptor was cultured in a DMEM culture medium (containing […], 100 U/mL penicillin, and 100 μg/mL streptomycin). Before the experiment, the cells were seeded into a culture plate at a density of 1×10^5 cells/well, and a serum-free culture medium was used instead. The cells were cultured at 37° C. with […] and 5% CO2 humidity. IBMX was added to inhibit the activity of PDEs, thereby ensuring a relatively high level of cAMP. The AC agonist Forskolin (30 μM) was adopted to stimulate the production of cellular cAMP. Test compounds at different concentrations (0.01 nm, 0.1 nm, 1 nm, 10 nm, and 100 nm) were added in advance, and PPTN was used as a positive control. Subsequently, 1 μM P2Y14 receptor agonist UDPG was added, and after 4 h, the content of intracellular cAMP was measured using a cAMP Glo™ Assay kit (PROMEGA Co. Ltd., USA). The inhibition rate was calculated based on the cAMP content.

SMILES	inhibition at 0.1 µM
Cc1ccc(C(=O)Nc2cc(C(=O)O)sc2Oc2ccc(F)cc2)cc1 [Compound 2, 5-(4-fluorophenoxy)-4-(4-methylbenzamido)thiophene-2-carboxylic acid]	70.4%
Cc1ccc(C(=O)Nc2cc(C(=O)O)sc2Oc2ccccc2)cc1 [Compound 3-1]	44.1%
Cc1ccc(C(=O)Nc2cc(C(=O)O)sc2Oc2cccc(F)c2)cc1 [Compound 3-2]	69.6%
Cc1ccc(C(=O)Nc2cc(C(=O)O)sc2Oc2ccccc2F)cc1 [Compound 3-3]	66%
Cc1ccc(C(=O)Nc2cc(C(=O)O)sc2Oc2ccc(Cl)cc2)cc1 [Compound 3-4]	30.9%
Cc1ccc(C(=O)Nc2cc(C(=O)O)sc2Oc2cccc(Cl)c2)cc1 [Compound 3-5]	36.2%
Cc1ccc(C(=O)Nc2cc(C(=O)O)sc2Oc2ccccc2Cl)cc1 [Compound 3-6]	40.4%
Cc1ccc(C(=O)Nc2cc(C(=O)O)sc2Oc2ccc(C(F)(F)F)cc2)cc1 [Compound 3-7]	62.6%
Cc1ccc(C(=O)Nc2cc(C(=O)O)sc2Oc2cccc(C(F)(F)F)c2)cc1 [Compound 3-8]	52.8%
Cc1ccc(C(=O)Nc2cc(C(=O)O)sc2Oc2ccccc2C(F)(F)F)cc1 [Compound 3-9]	57.1%
Cc1ccc(C(=O)Nc2cc(C(=O)O)sc2Oc2ccc(OC(F)(F)F)cc2)cc1 [Compound 3-10]	32.7%
CC(=O)c1ccc(Oc2sc(C(=O)O)cc2NC(=O)c2ccc(C)cc2)cc1 [Compound 3-11]	34.5%
Cc1ccc(C(=O)Nc2cc(C(=O)O)sc2Oc2ccc(C(=O)O)cc2)cc1 [Compound 3-12]	44.1%
Cc1ccc(C(=O)Nc2cc(C(=O)O)sc2Oc2ccc(C#N)cc2)cc1 [Compound 3-13]	46.2%
Cc1ccc(C(=O)Nc2cc(C(=O)O)sc2Oc2ccc(S(C)(=O)=O)cc2)cc1 [Compound 3-14]	62.8%
Cc1ccc(Oc2sc(C(=O)O)cc2NC(=O)c2ccc(C)cc2)cc1 [Compound 3-15]	88.4%
Cc1ccc(C(=O)Nc2cc(C(=O)O)sc2Oc2cccc(C)c2)cc1 [Compound 3-16]	55.8%
Cc1ccc(C(=O)Nc2cc(C(=O)O)sc2Oc2ccccc2C)cc1 [Compound 3-17]	45.8%
COc1ccc(Oc2sc(C(=O)O)cc2NC(=O)c2ccc(C)cc2)cc1 [Compound 3-18]	69.8%
CCc1ccc(Oc2sc(C(=O)O)cc2NC(=O)c2ccc(C)cc2)cc1 [Compound 3-19]	67.4%
CCCc1ccc(Oc2sc(C(=O)O)cc2NC(=O)c2ccc(C)cc2)cc1 [Compound 3-20]	66.3%
Cc1ccc(C(=O)Nc2cc(C(=O)O)sc2Oc2ccc(C(C)C)cc2)cc1 [Compound 3-21]	54.3%
Cc1ccc(C(=O)Nc2cc(C(=O)O)sc2Oc2ccc(C(C)(C)C)cc2)cc1 [Compound 3-22]	34.6%
CC(=O)Nc1ccc(Oc2sc(C(=O)O)cc2NC(=O)c2ccc(C)cc2)cc1 [Compound 3-23]	81.1%
Cc1ccc(C(=O)Nc2cc(C(=O)O)sc2Oc2ccc(C(=O)NCC3CS(=O)(=O)C3)cc2)cc1 [Compound 3-24]	75.6%
Cc1ccc(C(=O)Nc2cc(C(=O)O)sc2Oc2ccc(C(=O)NCCC3CCOCC3)cc2)cc1 [Compound 3-25]	49.5%
Cc1ccc(Nc2sc(C(=O)O)cc2NC(=O)c2ccc(C)cc2)cc1 [Compound 8, 4-(4-methylbenzamido)-5-(p-tolylamino)thiophene-2-carboxylic acid]	75.6%
Cc1ccc(Sc2sc(C(=O)O)cc2NC(=O)c2ccc(C)cc2)cc1 [Compound 11, 4-(4-methylbenzamido)-5-(p-tolylthio)thiophene-2-carboxylic acid]	75.6%
Cc1ccc(Oc2sc(C(=O)O)cc2NC(=O)c2ccccc2)cn1 [Compound 14, 5-((6-methylpyridin-3-yl)oxy)-4-(benzamido)thiophene-2-carboxylic acid]	86.9%
Cc1ccc(Oc2sc(C(=O)O)cc2NC(=O)c2ccc(C)nc2)cn1 [Compound 17, 4-(6-methylnicotinamido)-5-((6-methylpyridin-3-yl)oxy)thiophene-2-carboxylic acid]	65.1%

More lines, now with the values ahead:

inhibition at 0.1 µM	SMILES
62%	Cc1ccc(C(=O)Nc2cc(C(=O)O)sc2Oc2cccnc2)cc1 [Compound 6-1]
88.4%	Cc1ccc(C(=O)Nc2cc(C(=O)O)sc2Oc2ccc(F)nc2)cc1 [Compound 6-2]
74.9%	Cc1ccc(C(=O)Nc2cc(C(=O)O)sc2Oc2ccccn2)cc1 [Compound 6-3]
75.5%	Cc1ccc(C(=O)Nc2cc(C(=O)O)sc2Oc2ccc(F)cn2)cc1 [Compound 6-5]
43.5%	Cc1ccc(C(=O)Nc2cc(C(=O)O)sc2Oc2ccncc2)cc1 [Compound 6-6]
60.3%	Cc1ccc(C(=O)Nc2cc(C(=O)O)sc2Oc2ccsn2)cc1 [Compound 6-7]
82.3%	Cc1ccc(C(=O)Nc2cc(C(=O)O)sc2Nc2ccccc2)cc1 [Compound 9-1]
55.7%	Cc1ccc(C(=O)Nc2cc(C(=O)O)sc2Nc2ccc(F)cc2)cc1 [Compound 9-2]
71.5%	CCc1ccc(Nc2sc(C(=O)O)cc2NC(=O)c2ccc(C)cc2)cc1 [Compound 9-3]
59.8%	Cc1ccc(C(=O)Nc2cc(C(=O)O)sc2Nc2ccc(C(C)C)cc2)cc1 [Compound 9-4]
57.5%	Cc1ccc(C(=O)Nc2cc(C(=O)O)sc2Sc2ccccc2)cc1 [Compound 12-1]
61.4%	Cc1ccc(C(=O)Nc2cc(C(=O)O)sc2Sc2ccc(F)cc2)cc1 [Compound 12-2]
67.5%	CCc1ccc(Sc2sc(C(=O)O)cc2NC(=O)c2ccc(C)cc2)cc1 [Compound 12-3]
82.5%	Cc1ccc(C(=O)Nc2cc(C(=O)O)sc2Sc2ccc(C(F)(F)F)cc2)cc1 [Compound 12-4]
75.7%	Cc1ccc(Oc2sc(C(=O)O)cc2NC(=O)c2ccc(F)cc2)cn1 [Compound 15-1]
75.4%	Cc1ccc(Oc2sc(C(=O)O)cc2NC(=O)c2ccc(Cl)cc2)cn1 [Compound 15-2]
46.4%	CCc1ccc(C(=O)Nc2cc(C(=O)O)sc2Oc2ccc(C)nc2)cc1 [Compound 15-3]
85.6%	CCCc1ccc(C(=O)Nc2cc(C(=O)O)sc2Oc2ccc(C)nc2)cc1 [Compound 15-4]
78.7%	Cc1ccc(Oc2sc(C(=O)O)cc2NC(=O)c2ccc(C(C)C)cc2)cn1 [Compound 15-5]
86.1%	Cc1ccc(Oc2sc(C(=O)O)cc2NC(=O)c2ccc(C(C)(C)C)cc2)cn1 [Compound 15-6]
94.6%	C#Cc1ccc(C(=O)Nc2cc(C(=O)O)sc2Oc2ccc(C)nc2)cc1 [Compound 15-7]
76.4%	Cc1ccc(Oc2sc(C(=O)O)cc2NC(=O)c2ccc(C#N)cc2)cn1 [Compound 15-8]
82.1%	Cc1ccc(Oc2sc(C(=O)O)cc2NC(=O)c2ccc(C(F)(F)F)cc2)cn1 [Compound 15-9]
91.3%	COc1ccc(C(=O)Nc2cc(C(=O)O)sc2Oc2ccc(C)nc2)cc1 [Compound 15-10]
79.3%	Cc1ccc(Oc2sc(C(=O)O)cc2NC(=O)c2ccc(C(=O)O)cc2)cn1 [Compound 15-11]
45.1%	Cc1ccc(C(=O)Nc2cc(C(=O)O)sc2Oc2ccc(C)nc2)nc1 [Compound 18-1]
48.2%	Cc1ccc(Oc2sc(C(=O)O)cc2NC(=O)c2cnc(C)cn2)cn1 [Compound 18-2]
56.2%	Cc1ccc(Oc2sc(C(=O)O)cc2NC(=O)c2cnc(C)nc2)cn1 [Compound 18-3]
46.8%	Cc1ccc(Oc2sc(C(=O)O)cc2NC(=O)c2ccc(N(C)C)cc2)cn1 [Compound 18-4]
45.8%	Cc1ccc(Oc2sc(C(=O)O)cc2NC(=O)c2cnn(C)c2)cn1 [Compound 18-5]

same assay, conditions: HEK293, read-out: Inhibition @ 100 nM

SMILES	inhibition at 0.1 µM
Cc1ccc(C(=O)Nc2cc(C(=O)O)sc2Oc2ccc(C)cn2)cc1 [Compound 6-4]	81.3%

From patent publication US20260258010A1, “THIOPHENE-2-CARBOXYLIC ACID DERIVATIVE, AND PREPARATION METHOD THEREFOR AND MEDICAL USE THEREOF” (CHINA PHARMACEUTICAL UNIVERSITY, priority 2023, published 2026)
